Laboratory results reported in publication PMC12935787, “Clinical pharmacokinetics and pharmacometabolomics of Andrographis paniculata capsules: Bridging drug disposition and metabolic response to precision medicine” (Naunyn-Schmiedeberg's Archives of Pharmacology, 2025).
Where two headings read alike, the source gives them in different places.

What was measured:
[1] = design: method as in Songvut et al. [2023b]; settings: AP dose corresponding to 60 mg of andrographolide; ref Songvut et al. [2023b]; cited from earlier work
[2] = Clinical pharmacokinetics, plasma LC-MS/MS after single oral dose of AP capsules; type: in vivo, human (healthy volunteers); settings: human, plasma; for concentration at 0 h / concentration at 0.5 h / concentration at 1 h / concentration at 1.5 h / concentration at 2 h / concentration at 2.5 h / concentration at 3 h / concentration at 3.5 h / concentration at 4 h / concentration at 5 h / concentration at 6 h / concentration at 8 h / concentration at 10 h / concentration at 12 h / concentration at 24 h: oral, 2000 mg, 2000 mg AP capsules; for concentration at 0.5 h: 0.50 h; for concentration at 1.5 h: 1.50 h; for concentration at 2.5 h: 2.50 h; for concentration at 3.5 h: 3.50 h
Description: The protocol was published (Tee et al. [2022]).
Seven calibrators ranging from 1, 2, 5,10, 20, 50, and 100 ng mL^−1 were prepared. Frozen plasma was thawed, vortexed-mixes, and processed via protein precipitation: 50 µL plasma plus 100 µL 0.01% ammonia in methanol were vortexed (20 s), centrifuged (14800 rpm, 5 min) and […] supernatant was transferred to 2 mL vials with inserts. LC–MS/MS injection volume: 10 µL. The separation used a Phenomenex Gemini-NX C18 column (150 × 2.1 mm, 5 μm) with 0.01% ammonia (A) and acetonitrile/methanol (1:1, B) as mobile phases (0.30 mL min^-1). The gradient program: 40% B (0 min), linear increase to 95% B (3 min), hold to 5 min, sharp decrease to 10% B (5.01 min), hold to 7 min, return to 40% B (7.01 min), and re-equilibration to 10 min. Mass detection employed an LCMS-8060NX triple quadrupole with heated ESI in negative mode, monitoring specific MRM transitions: andrographolide (349.3 → 331.2/287.1), 14-deoxyandrographolide (331.2 → 108.0/301.1), and neoandrographolide (479.1 → 317.4/161.1).
Pharmacokinetic parameters were determined from plasma samples (5 subjects, 15 time points) analyzed via LC–MS/MS (Shimadzu 8060NX). […] Specific MRM transitions for andrographolide, 14-deoxyandrographolide, and neoandrographolide in plasma samples of subjects are illustrated in Figure S3. […] The dose-dependent concentration–time curves, pharmacokinetics profiles (Fig. 2a, b and c) and comprehensive individual PK data (Table S4) provide a foundation for developing personalized AP dosing regimens, supporting its precision medicine potential.

[3] = S1, read-out: Plasma concentration
[4] = S2, read-out: Plasma concentration
[5] = S3, read-out: Plasma concentration
[6] = S4, read-out: Plasma concentration
[7] = S5, read-out: Plasma concentration
[8] = mean n=5, read-out: Mean concentration
[9] = 2000 mg AP capsules oral, fasting, n=5

concentration at 0 h [2, 3]: 0 ng/mL
concentration at 0.5 h [2, 3]: 13.2 ng/mL
concentration at 1 h [2, 3]: 21.3 ng/mL
concentration at 1.5 h [2, 3]: 41.4 ng/mL
concentration at 2 h [2, 3]: 32 ng/mL
concentration at 2.5 h [2, 3]: 19.7 ng/mL
concentration at 3 h [2, 3]: 24.1 ng/mL
concentration at 3.5 h [2, 3]: 22.2 ng/mL
concentration at 4 h [2, 3]: 6.67 ng/mL
concentration at 5 h [2, 3]: 11.3 ng/mL
concentration at 6 h [2, 3]: 4.57 ng/mL
concentration at 8 h [2, 3]: 0.97 ng/mL
concentration at 10 h [2, 3]: 0 ng/mL
concentration at 12 h [2, 3]: 0 ng/mL
concentration at 24 h [2, 3]: 0 ng/mL
concentration at 0 h [2, 4]: 0 ng/mL
concentration at 0.5 h [2, 4]: 0.77 ng/mL
concentration at 1 h [2, 4]: 45.3 ng/mL
concentration at 1.5 h [2, 4]: 43.7 ng/mL
concentration at 2 h [2, 4]: 28 ng/mL
concentration at 2.5 h [2, 4]: 21.7 ng/mL
concentration at 3 h [2, 4]: 36.5 ng/mL
concentration at 3.5 h [2, 4]: 15.1 ng/mL
concentration at 4 h [2, 4]: 12.8 ng/mL
concentration at 5 h [2, 4]: 16.2 ng/mL
concentration at 6 h [2, 4]: 5.29 ng/mL
concentration at 8 h [2, 4]: 1.69 ng/mL
concentration at 10 h [2, 4]: 0 ng/mL
concentration at 12 h [2, 4]: 0 ng/mL
concentration at 24 h [2, 4]: 0 ng/mL
concentration at 0 h [2, 5]: 0 ng/mL
concentration at 0.5 h [2, 5]: 82.9 ng/mL
concentration at 1 h [2, 5]: 75.6 ng/mL
concentration at 1.5 h [2, 5]: 50 ng/mL
concentration at 2 h [2, 5]: 24.3 ng/mL
concentration at 2.5 h [2, 5]: 13.1 ng/mL
concentration at 3 h [2, 5]: 7.05 ng/mL
concentration at 3.5 h [2, 5]: 0 ng/mL
concentration at 4 h [2, 5]: 0 ng/mL
concentration at 5 h [2, 5]: 0 ng/mL
concentration at 6 h [2, 5]: 0 ng/mL
concentration at 8 h [2, 5]: 0 ng/mL
concentration at 10 h [2, 5]: 0 ng/mL
concentration at 12 h [2, 5]: 0 ng/mL
concentration at 24 h [2, 5]: 0 ng/mL
concentration at 0 h [2, 6]: 0 ng/mL
concentration at 0.5 h [2, 6]: 1.9 ng/mL
concentration at 1 h [2, 6]: 41.1 ng/mL
concentration at 1.5 h [2, 6]: 109 ng/mL
concentration at 2 h [2, 6]: 78.2 ng/mL
concentration at 2.5 h [2, 6]: 53.9 ng/mL
concentration at 3 h [2, 6]: 43.9 ng/mL
concentration at 3.5 h [2, 6]: 33.5 ng/mL
concentration at 4 h [2, 6]: 21.9 ng/mL
concentration at 5 h [2, 6]: 20.6 ng/mL
concentration at 6 h [2, 6]: 11.9 ng/mL
concentration at 8 h [2, 6]: 2.08 ng/mL
concentration at 10 h [2, 6]: 0 ng/mL
concentration at 12 h [2, 6]: 0 ng/mL
concentration at 24 h [2, 6]: 0 ng/mL
concentration at 0 h [2, 7]: 0 ng/mL
concentration at 0.5 h [2, 7]: 15.4 ng/mL
concentration at 1 h [2, 7]: 27.1 ng/mL
concentration at 1.5 h [2, 7]: 48 ng/mL
concentration at 2 h [2, 7]: 86.8 ng/mL
concentration at 2.5 h [2, 7]: 65.8 ng/mL
concentration at 3 h [2, 7]: 59.5 ng/mL
concentration at 3.5 h [2, 7]: 31.1 ng/mL
concentration at 4 h [2, 7]: 18.5 ng/mL
concentration at 5 h [2, 7]: 9.61 ng/mL
concentration at 6 h [2, 7]: 4.65 ng/mL
concentration at 8 h [2, 7]: 1.35 ng/mL
concentration at 10 h [2, 7]: 0 ng/mL
concentration at 12 h [2, 7]: 0 ng/mL
concentration at 24 h [2, 7]: 0 ng/mL
concentration at 0 h [2, 8]: 0 ng/mL
concentration at 0.5 h [2, 8]: 22.8 ng/mL
concentration at 1 h [2, 8]: 42.1 ng/mL
concentration at 1.5 h [2, 8]: 58.5 ng/mL
concentration at 2 h [2, 8]: 49.9 ng/mL
concentration at 2.5 h [2, 8]: 34.9 ng/mL
concentration at 3 h [2, 8]: 34.2 ng/mL
concentration at 3.5 h [2, 8]: 20.4 ng/mL
concentration at 4 h [2, 8]: 12 ng/mL
concentration at 5 h [2, 8]: 11.5 ng/mL
concentration at 6 h [2, 8]: 5.28 ng/mL
concentration at 8 h [2, 8]: 1.22 ng/mL
concentration at 10 h [2, 8]: 0 ng/mL
concentration at 12 h [2, 8]: 0 ng/mL
concentration at 24 h [2, 8]: 0 ng/mL
AUC(0-inf) [2, 9]: 163 ng·h/mL
AUC(0-t) [2, 9]: 161 ng·h/mL
Cmax [2, 9]: 58.5 ng/mL
half-life [2, 9]: 55.8 min
SMILES: C=C1CC[C@@H]2[C@](C)(CO[C@@H]3O[C@H](CO)[C@@H](O)[C@H](O)[C@H]3O)CCC[C@@]2(C)[C@@H]1CCC1=CCOC1=O [neoandrographolide]
Cmax, previously reported [1]: 24.4 ± 5.6 ng/mL
Tmax, previously reported [1]: 54 min
